One molecule from patent US9550792B2, “Polycyclic substituted pyrazole kinase activity inhibitors and use thereof” (priority 2013, dated 2017) can be followed below.

Where two headings read alike, the source gives them in different places.

The subject of series [1] is resistant breast cancer cell line MCF-7. The experiment in a line: Anti-tumor activity in vitro, MTT method. The note with it: Homo sapiens, MCF7, 48 h, read-out: Resistant MCF7 (IC50/μM). A general note: Tetrazolium assays rely on reduction of a dye to a coloured formazan, in cell work by metabolically active cells.
Description: (§1) MTT method: the dehydrogenase associated with NADP in the mitochondria of living cell is capable of reducing exogenous MTT into insoluble bluish violet crystal (Formazan), which is precipitated in the cell. […] DMSO or Triple liquid (10% SDS-5% isobutanol-0.01 mol/L HCl) is used to dissolve the crystal in the cell. The OD determined at 570 nm by a microplate reader can reflect the amount of the living cell indirectly.
(§2) The crystal is dissolved with DMSO and the detection is performed on a microplate reader.
Series [2] deals with breast cancer cell line MDA231. The series can be described thus: Anti-tumor activity in vitro, MTT method. The note with it: Homo sapiens, MDA-MB-231, 48 h, read-out: MDA231 (IC50/μM).
Description: as §1, §2
Series [3] relates to stomach cancer cell line BSG823. The series can be described thus: Anti-tumor activity in vitro, MTT method. The note with it: 48 h, read-out: BSG823 (IC50/μM).
Description: as §1, §2
The test system of another series is leukemia cell line K562. The experiment in a line: Anti-tumor activity in vitro, MTT method. Conditions: Homo sapiens, K562, 48 h, read-out: K562 (IC50/μM).
For series [4], the system named is colon cancer cell line HCT116. The experiment in a line: Anti-tumor activity in vitro, MTT method. The series is classed as cell-based. The note with it: Homo sapiens, HCT-116, 48 h.
A further series concerns lung cancer cell H1299. The series can be described thus: Anti-tumor activity in vitro, MTT method. Conditions: Homo sapiens, NCI-H1299, 48 h, read-out: H1299 (IC50/μM). The series is classed as cell-based.
Another series has as its system leukemia cell line NB4. The series can be described thus: Anti-tumor activity in vitro, MTT method. Conditions: 48 h, read-out: NB4 (IC50/μM).
Series [5] deals with umbilical cord vein endothelium cell line HUVEC. The experiment in a line: Anti-tumor activity in vitro, MTT method. The note with it: Homo sapiens, 48 h, read-out: HUVEC (IC50/μM).
Description: as §1, §2
Another series relates to S180 grafting tumor. The series can be described thus: Inhibition to S180 grafting tumor in animal. It counts as in vivo, ICR mouse. Conditions: 15 mg/kg intravenously once a day, 7 administrations. As to the method: ICR mouse was inoculated with solid tumor according to tumor grafting process (tumor piece was weighed under sterile condition, homogenized with glass tissue homogenizer, placed within a sterile container, to which was added physiological saline to prepare 1:3 cell suspension. The container was placed on ice and aspirated and the cells were mixed homogeneously before each aspiration. Each mouse was inoculated subcutaneously 0.2 mL at right fore axilla). […] The mice were administered intravenously, once a day and 7 administrations in total. The administration volume was 0.4 ml/20 g. The mice bearing tumor were sacrificed 8 days after inoculation (d8). The tumor tissue was separated and weighed. The data was analyzed with statistics method (t-test).
Dose setting: 5 groups in total.

Series [6] concerns lung cancer cell line A549. The experiment in a line: Anti-tumor activity in vitro, MTT method. The note with it: Homo sapiens, A549, 48 h, read-out: A549 (IC50/μM).
Description: as §1, §2
Series [7] deals with stomach cancer cell line MGC803. The series can be described thus: Anti-tumor activity in vitro, MTT method. Conditions: Homo sapiens, MGC-803, 48 h, read-out: MGC803 (IC50/μM).
Description: as §1, §2
In series [8] the test system is breast cancer cell line MCF-7. The experiment in a line: Anti-tumor activity in vitro, MTT method. The note with it: Homo sapiens, MCF7, 48 h, read-out: MCF7 (IC50/μM).
Description: as §1, §2
The target in the next series is T1, Aurora A (Homo sapiens, UniProt O14965).
T1 construct: purchased
T1 sequence (O14965 1-403): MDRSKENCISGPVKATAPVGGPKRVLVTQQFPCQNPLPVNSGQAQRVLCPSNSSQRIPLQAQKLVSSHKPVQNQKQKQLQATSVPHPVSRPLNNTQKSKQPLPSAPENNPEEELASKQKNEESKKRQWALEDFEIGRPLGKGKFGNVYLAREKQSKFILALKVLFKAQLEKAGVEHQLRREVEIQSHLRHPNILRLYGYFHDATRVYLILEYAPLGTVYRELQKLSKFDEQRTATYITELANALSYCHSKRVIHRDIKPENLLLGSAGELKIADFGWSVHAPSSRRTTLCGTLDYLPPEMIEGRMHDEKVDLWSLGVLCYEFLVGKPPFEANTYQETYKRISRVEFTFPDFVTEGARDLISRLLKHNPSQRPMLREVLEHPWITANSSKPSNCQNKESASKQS
The series can be described thus: Inhibitory activity to Aurora A (FRET). The note with it: read-out: Aurora A inhibition % (1 × 10^−6 mol/L). The series is classed as biochemical. In outline:
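FRET kinase assay of Aurora A with peptide substrate in HEPES pH 7.5, BRIJ-35, MgCl2, EDTA; 1 h reaction, then 1 h development before stop. Ex 400 nm, emission 445 nm (coumarin) and 520 nm (fluorescein); 0% and 100% phosphorylation controls set inhibition scale.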

In series [9] the test system is liver cancer cell line HEPG2. The experiment in a line: Anti-tumor activity in vitro, MTT method. The note with it: Homo sapiens, HepG2, 48 h, read-out: HEPG2 (IC50/μM).
Description: as §1, §2
Series [10] relates to liver cancer cell line 7721. The series can be described thus: Anti-tumor activity in vitro, MTT method. It counts as cell-based. Conditions: 48 h, read-out: 7721 (IC50/μM).

Description for leukemia cell line K562: as §1, §2
Description for leukemia cell line NB4: as §1, §2

As for `O=C(NC1CCNCC1)c1n[nH]cc1NC(=O)c1c(Cl)cccc1Cl` [AT-7519, reference compound], the IC50 in [1] was found to be 22.1 µM; in series [2], 2.58 µM; in series [3], 16.7 µM; with leukemia cell line K562 it was 3.24 µM; in [4] (read-out: HCT116 (IC50/μM)), 2.63 µM; in series [4] (read-out: HCT-116 (IC50/μM)) it was 21.2 µM. In addition, the IC50 is 9.32 µM with lung cancer cell H1299; 0.62 µM in the series on leukemia cell line NB4; 5.67 µM in [5]; 53.5 µM in series [6]; 1.93 µM in [7]; 2.04 µM in series [8]. Also, the IC50 in [9] is 53.6 µM; in [10], greater than 200 µM. Further, in the series with S180 grafting tumor, the “Body weight After administration” value is on record as 23.83 ± 3.39 g. For the same molecule, the Tumor inhibition in the series with S180 grafting tumor (d8) is on record as 32.45%. Further, in the series with S180 grafting tumor (d8), the Tumor weight is reported as 0.80 ± 0.27 g. Besides, the inhibition at 1 µM at Aurora A came out at 38%.
